Measured values: publication PMC10632401, “Cell-free biosynthesis combined with deep learning accelerates de novo-development of antimicrobial peptides” (Nature Communications, 2023)

Legend:
E. coli = format: cell-based, Escherichia coli; settings: daily passage from cells grown at half-MIC, n=3
Escherichia coli MG1655 = test: Outer membrane vesicle (OMV) release after AMP treatment; format: cell-based; settings: ¼ MIC, 90 min
Protocol: Escherichia coli MG1655 was grown on MacConkey agar (Carl Roth, Karlsruhe, Germany) plates overnight. For overnight culture, a single colony was used for inoculation of 2 mL LB media at 37 °C, 160 rpm (MaxQ 6000, Thermo Fisher Scientific, Karlsruhe, Germany). Bacterial culture was transferred to 10 mL fresh LB media and incubated (1 h, 37 °C, 160 rpm). The required amount of bacteria was treated with ¼ MIC of the AMPs #3, #5, #10, #13, #15, #16, and #27, left untreated for control or was treated with acetic acid and BSA as solvent control (90 min, 37 °C, 160 rpm). Samples were centrifuged (4,500 x g, 15 min, 4 °C; Multifuge X3R, Thermo Fisher Scientific), the supernatant was sterile filtered (0.22 µm) and afterwards concentrated by the factor of 20 using 100 kDa molecular weight cut-off filters (Merck KGaA, Darmstadt, Germany). To determine the number of released vesicles, samples were measured by nano-flow cytometry (nFCM) using a NanoAnalyzer (NanoFCM Co., Ltd, Nottingham, UK)[64].

Compound	increase in MIC during 21 days of serial passage (E. coli)	release of outer membrane vesicles (OMV) compared to untreated E. coli (Escherichia coli MG1655)
C[C@@H](O)[C@H]1C(=O)N2C(C(=O)O)=C(SCCN=CN)C[C@H]12 [imipenem]	up to 8 fold	–
polymyxin B	–	only significantly different group
